Reference: BindingDB's records for doi:10.1021/acs.jnatprod.4c00082 (Johannes Gutenberg-University, 2024)

Biological target: T1, Signal transducer and activator of transcription 6 (Homo sapiens, UniProt P42226)
T1 sequence (P42226 whole entry): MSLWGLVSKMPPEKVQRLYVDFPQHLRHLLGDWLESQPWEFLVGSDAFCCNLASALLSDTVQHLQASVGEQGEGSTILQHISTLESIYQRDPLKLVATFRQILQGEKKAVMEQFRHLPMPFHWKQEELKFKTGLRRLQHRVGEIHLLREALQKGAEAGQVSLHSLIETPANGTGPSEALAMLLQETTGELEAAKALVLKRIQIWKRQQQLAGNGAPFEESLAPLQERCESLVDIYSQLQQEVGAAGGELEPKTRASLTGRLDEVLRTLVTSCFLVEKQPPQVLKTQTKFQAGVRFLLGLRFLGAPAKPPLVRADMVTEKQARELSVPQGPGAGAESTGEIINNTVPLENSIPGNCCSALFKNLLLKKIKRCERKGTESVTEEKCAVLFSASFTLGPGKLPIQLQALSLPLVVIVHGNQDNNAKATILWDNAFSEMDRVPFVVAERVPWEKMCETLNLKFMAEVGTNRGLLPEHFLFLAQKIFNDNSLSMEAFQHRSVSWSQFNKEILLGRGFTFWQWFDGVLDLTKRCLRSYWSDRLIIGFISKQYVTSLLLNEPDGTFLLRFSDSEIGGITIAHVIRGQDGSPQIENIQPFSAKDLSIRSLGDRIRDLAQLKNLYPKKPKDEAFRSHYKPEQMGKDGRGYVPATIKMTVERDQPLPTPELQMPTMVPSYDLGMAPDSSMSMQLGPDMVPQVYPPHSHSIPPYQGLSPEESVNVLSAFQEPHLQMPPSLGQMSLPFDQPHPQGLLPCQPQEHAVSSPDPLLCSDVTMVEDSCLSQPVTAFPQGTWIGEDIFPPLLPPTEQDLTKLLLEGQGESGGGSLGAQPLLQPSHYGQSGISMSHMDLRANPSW
Assay: Inhibition of IL-4 induced STAT6 signaling in human HepG2 cells harboring pRL-EF1alpha, pGL3-TK-7xN4 and TOPO-Stat6 plasmid assessed as luciferase activity incubated for 24 hrs

Row | SMILES | IC50 [nM]
1 | C/C1=C\C[C@H](O)[C@H](C)[C@@H](C)OC(=O)Cc2c(Cl)c(O)cc(O)c2C1=O | 50
2 | C/C1=C\C[C@H](O)[C@H](C)[C@H](C)OC(=O)Cc2c(Cl)c(O)cc(O)c2C1=O | 200
3 | C/C1=C/C[C@@H](O)[C@H](C)[C@@H](C)OC(=O)Cc2c(Cl)c(O)cc(O)c2C1=O | 72
4 | C/C1=C/C[C@H](O)[C@H](C)[C@@H](C)OC(=O)Cc2c(Cl)c(O)cc(O)c2C1=O | 64
5 | C/C1=C\C[C@@H](O)[C@H](C)[C@H](C)OC(=O)Cc2c(Cl)c(O)cc(O)c2C1=O | 1000
